This experiment concerns human umbilical vein endothelial cells (HUVEC). The experiment in a line: HUVEC proliferation assay. The format is cell-based. The following applies: Homo sapiens, HUVEC, crude combinatorial urea library; for inhibition at 0.01 µM: 10 nM, read-out: Inhibition of HUVEC Proliferation % inhibition @ 10 nM; for inhibition at 0.05 µM: 50 nM, read-out: Inhibition of HUVEC Proliferation % inhibition @ 50 nM. As for the experimental part: HUVEC Proliferation Assay
This assay determines the ability of a test compound to inhibit the growth factor-stimulated proliferation of human umbilical vein endothelial cells (“HUVEC”). HUVEC cells (passage 3-4, Clonetics, Corp.) were thawed into EGM2 culture medium (Clonetics Corp) in T75 flasks. Fresh EGM2 medium was added to the flasks 24 hours later. Four or five days later, cells were exposed to another culture medium (F12K medium supplemented with 10% fetal bovine serum (FBS), 60 μg/ml endothelial cell growth supplement (ECGS), and 0.1 mg/ml heparin). Exponentially-growing HUVEC cells were used in experiments thereafter. Ten to twelve thousand HUVEC cells were plated in 96-well dishes in 100 μl of rich, culture medium (described above). The cells were allowed to attach for 24 hours in this medium. The medium was then removed by aspiration and 105 μl of starvation media (F12K+1% FBS) was added to each well. After 24 hours, 15 μl of test agent dissolved in 1% DMSO in starvation medium or this vehicle alone was added into each treatment well; the final DMSO concentration was 0.1%. One hour later, 30 μl of VEGF (30 ng/ml) in starvation media was added to all wells except those containing untreated controls; the final VEGF concentration was 6 ng/ml. Cellular proliferation was quantified 72 hours later by MTT dye reduction, at which time cells were exposed for 4 hours MTT (Promega Corp.). Dye reduction was stopped by addition of a stop solution (Promega Corp.) and absorbance at 595 λ was determined on a 96-well spectrophotometer plate reader.
IC50 values were calculated by curve-fitting the response of A^595 to various concentrations of the test agent; typically, seven concentrations separated by 0.5 log were employed, with triplicate wells at each concentration. For screening compound library plates, one or two concentrations (one well per concentration) were employed, and the % inhibition was calculated by the following formula:
% inhibition=(control−test) divided by (control−starvation) […]
control=A^595 when VEGF is present without test agent test=A^595 when VEGF is present with test agent starvation=A^595 when VEGF and test agent are both absent.

As to `COc1cccc(C(=O)Nc2cccc(-c3csc(-c4sc(NC(=O)NCC5CCC=CO5)nc4N)n3)c2)c1` (centres unmarked), the inhibition at 0.01 µM is -5% and the inhibition at 0.05 µM is 33%. On the same counts, the results for `CCN(CC)CCNC(=O)Nc1nc(N)c(-c2nc(-c3cccc(NC(=O)c4cccc(OC)c4)c3)cs2)s1` are -38% and 39%.

Turning to `COc1cccc(C(=O)Nc2cccc(-c3csc(-c4sc(NC(=O)NC5CC(C)(C)NC(C)(C)C5)nc4N)n3)c2)c1`, the inhibition at 0.01 µM is -13% and the inhibition at 0.05 µM is 29%. On the same counts, the results for `COc1cccc(C(=O)Nc2cccc(-c3csc(-c4sc(NC(=O)NCCc5ccc(N)cc5)nc4N)n3)c2)c1` are -3% and 3%.

`CCCCN(CCCC)CCCNC(=O)Nc1nc(N)c(-c2nc(-c3cccc(NC(=O)c4cccc(OC)c4)c3)cs2)s1`: the inhibition at 0.01 µM was -5% and the inhibition at 0.05 µM amounted to 62%. On the same counts, the results for `CCN(CC)CCCNC(=O)Nc1nc(N)c(-c2nc(-c3cccc(NC(=O)c4cccc(OC)c4)c3)cs2)s1` are -7% and 45%.

As to `COc1cccc(C(=O)Nc2cccc(-c3csc(-c4sc(NC(=O)NCC(N)=O)nc4N)n3)c2)c1`, the inhibition at 0.01 µM was determined as 12% and the inhibition at 0.05 µM stood at 25%. The corresponding values for `COc1cccc(C(=O)Nc2cccc(-c3csc(-c4sc(NC(=O)NCC(C)C)nc4N)n3)c2)c1` are -1% and -23%. The corresponding values for `COc1cccc(C(=O)Nc2cccc(-c3csc(-c4sc(NC(=O)NCCc5cccnc5)nc4N)n3)c2)c1` are 35% and 97%. As for `COc1cccc(C(=O)Nc2cccc(-c3csc(-c4sc(NC(=O)NCCO)nc4N)n3)c2)c1`, the inhibition at 0.01 µM was 38%. On to `COc1cccc(C(=O)Nc2cccc(-c3csc(-c4sc(NC(=O)N[C@@H](CC(N)=O)C(N)=O)nc4N)n3)c2)c1`, for which the inhibition at 0.01 µM is 19% and the inhibition at 0.05 µM was determined as 23%. The corresponding values for `CNC(=O)CNC(=O)Nc1nc(N)c(-c2nc(-c3cccc(NC(=O)c4cccc(OC)c4)c3)cs2)s1` are 42% and 23%. In the case of `COc1cccc(C(=O)Nc2cccc(-c3csc(-c4sc(NC(=O)NCCc5cncn5C)nc4N)n3)c2)c1`, the inhibition at 0.01 µM is -15% and the inhibition at 0.05 µM is 15%. The corresponding values for `CCN1CCCC1CNC(=O)Nc1nc(N)c(-c2nc(-c3cccc(NC(=O)c4cccc(OC)c4)c3)cs2)s1` (centres unmarked) are -29% and 108%.

As for `COc1cccc(C(=O)Nc2cccc(-c3csc(-c4sc(NC(=O)NC(C)CN(C)C)nc4N)n3)c2)c1` (centres unmarked), the inhibition at 0.01 µM is 12% and the inhibition at 0.05 µM turned out to be 28%. On the same counts, the results for `COc1cccc(C(=O)Nc2cccc(-c3csc(-c4sc(NC(=O)NCCCN5CCCC5)nc4N)n3)c2)c1` are 1% and 101%. With `COc1cccc(C(=O)Nc2cccc(-c3csc(-c4sc(NC(=O)NCCN(C(C)C)C(C)C)nc4N)n3)c2)c1`, the inhibition at 0.01 µM was determined as 2% and the inhibition at 0.05 µM came to 22%. Regarding `COc1cccc(C(=O)Nc2cccc(-c3csc(-c4sc(NC(=O)NCCCN5CCN(C)CC5)nc4N)n3)c2)c1`, the inhibition at 0.01 µM is -9% and the inhibition at 0.05 µM came out at 67%. On to `COc1cccc(C(=O)Nc2cccc(-c3csc(-c4sc(NC(=O)NCCN5CCNC5=O)nc4N)n3)c2)c1`, for which the inhibition at 0.01 µM came out at 0% and the inhibition at 0.05 µM was found to be 35%. On the same counts, the results for `COc1cccc(C(=O)Nc2cccc(-c3csc(-c4sc(NC(=O)NCCC(N)=O)nc4N)n3)c2)c1` are 30% and 1%. The corresponding values for `CCN(CC)CCCC(C)NC(=O)Nc1nc(N)c(-c2nc(-c3cccc(NC(=O)c4cccc(OC)c4)c3)cs2)s1` (centres unmarked) are 7% and 68%. On the same counts, the results for `COc1cccc(C(=O)Nc2cccc(-c3csc(-c4sc(NC(=O)NCCCCN(C)C)nc4N)n3)c2)c1` are -2% and 71%. As to `COc1cccc(C(=O)Nc2cccc(-c3csc(-c4sc(NC(=O)NCCCCCCN(C)C)nc4N)n3)c2)c1`, the inhibition at 0.01 µM turned out to be 32% and the inhibition at 0.05 µM came out at 24%. `COc1cccc(C(=O)Nc2cccc(-c3csc(-c4sc(NC(=O)NCC(C)N(C)C)nc4N)n3)c2)c1` (centres unmarked): the inhibition at 0.01 µM is -22% and the inhibition at 0.05 µM is -3%. Take `COc1cccc(C(=O)Nc2cccc(-c3csc(-c4sc(NC(=O)NCCCN5CCCCCC5)nc4N)n3)c2)c1`: the inhibition at 0.01 µM was 2% and the inhibition at 0.05 µM was 117%. On the same counts, the results for `COc1cccc(C(=O)Nc2cccc(-c3csc(-c4sc(NC(=O)NCCCN5CCCCC5)nc4N)n3)c2)c1` are 15% and 49%. The corresponding values for `COc1cccc(C(=O)Nc2cccc(-c3csc(-c4sc(NC(=O)NC5CCS(=O)(=O)C5)nc4N)n3)c2)c1` (centres unmarked) are 9% and 86%. The corresponding values for `COc1cccc(C(=O)Nc2cccc(-c3csc(-c4sc(NCCC(=O)NCC(=O)O)nc4N)n3)c2)c1` are -34% and 7%. For `COc1cccc(C(=O)Nc2cccc(-c3csc(-c4sc(NC(=O)NCC#N)nc4N)n3)c2)c1`, the inhibition at 0.01 µM is -3% and the inhibition at 0.05 µM was determined as 3%. The corresponding values for `COc1cccc(C(=O)Nc2cccc(-c3csc(-c4sc(NC(=O)NCC(=O)NO)nc4N)n3)c2)c1` are -1% and 37%. On the same counts, the results for `COc1cccc(C(=O)Nc2cccc(-c3csc(-c4sc(NC(=O)NCC(=O)O)nc4N)n3)c2)c1` are 42% and 52%.

`COc1cccc(C(=O)Nc2cccc(-c3csc(-c4sc(NC(=O)NCCS(=O)(=O)O)nc4N)n3)c2)c1`: the inhibition at 0.01 µM came to 45% and the inhibition at 0.05 µM came to 46%. `CCC(O)CNC(=O)Nc1nc(N)c(-c2nc(-c3cccc(NC(=O)c4cccc(OC)c4)c3)cs2)s1` (centres unmarked): the inhibition at 0.01 µM was found to be 30% and the inhibition at 0.05 µM is 135%. The corresponding values for `COc1cccc(C(=O)Nc2cccc(-c3csc(-c4sc(NC(=O)NCC(C)(C)CO)nc4N)n3)c2)c1` are 7% and 88%.

Consider `CCN1CC(NC(=O)Nc2nc(N)c(-c3nc(-c4cccc(NC(=O)c5cccc(OC)c5)c4)cs3)s2)CN1CC`, for which the inhibition at 0.01 µM was -24% and the inhibition at 0.05 µM was 45%. For the molecule `CCN(CCNC(=O)Nc1nc(N)c(-c2nc(-c3cccc(NC(=O)c4cccc(OC)c4)c3)cs2)s1)c1cccc(C)c1`, the inhibition at 0.01 µM was -10% and the inhibition at 0.05 µM came to 125%. The corresponding values for `COc1cccc(C(=O)Nc2cccc(-c3csc(-c4sc(NC(=O)NCC(=N)N)nc4N)n3)c2)c1` are 27% and 46%.

For `COc1cccc(C(=O)Nc2cccc(-c3csc(-c4sc(NC(=O)NCC(C)(C)C)nc4N)n3)c2)c1`, the inhibition at 0.01 µM stood at 44% and the inhibition at 0.05 µM came to 34%.

Turning to `COc1cccc(C(=O)Nc2cccc(-c3csc(-c4sc(NC(=O)NCC5(O)CCCCC5)nc4N)n3)c2)c1`, the inhibition at 0.01 µM is 4% and the inhibition at 0.05 µM came to 2%.
